Experiments:
[1] = target: AP2-associated protein kinase 1 (Homo sapiens) (UniProt Q2M2I8); conditions: Compound concentration 1000.0 nM
[2] = target: Ankyrin repeat and protein kinase domain-containing protein 1 (Homo sapiens) (UniProt Q8NFD2); conditions: Compound concentration 1000.0 nM
[3] = target: Mitogen-activated protein kinase kinase kinase 6 (Homo sapiens) (UniProt O95382); conditions: Compound concentration 1000.0 nM
[4] = target: Tyrosine-protein kinase Blk (Homo sapiens) (UniProt P51451); conditions: Compound concentration 1000.0 nM
[5] = target: Calcium/calmodulin-dependent protein kinase type 1 (Homo sapiens) (UniProt Q14012); conditions: Compound concentration 1000.0 nM
[6] = target: Peripheral plasma membrane protein CASK (Homo sapiens) (UniProt O14936); conditions: Compound concentration 1000.0 nM
[7] = target: Cyclin-dependent kinase-like 1 (Homo sapiens) (UniProt Q00532); conditions: Compound concentration 1000.0 nM
[8] = target: Cyclin-dependent kinase-like 2 (Homo sapiens) (UniProt Q92772); conditions: Compound concentration 1000.0 nM
[9] = target: Discoidin domain-containing receptor 2 (Homo sapiens) (UniProt Q16832); conditions: Compound concentration 1000.0 nM
[10] = target: Mitogen-activated protein kinase kinase kinase 12 (Homo sapiens) (UniProt Q12852); conditions: Compound concentration 1000.0 nM
[11] = target: Serine/threonine-protein kinase/endoribonuclease IRE1 (Homo sapiens) (UniProt O75460); conditions: Compound concentration 1000.0 nM
[12] = target: Tyrosine-protein kinase Fer (Homo sapiens) (UniProt P16591); conditions: Compound concentration 1000.0 nM
[13] = test system: Fibroblast growth factor receptor 3 (Homo sapiens), P22607 [G697C]; conditions: Compound concentration 1000.0 nM
[14] = test system: Receptor-type tyrosine-protein kinase FLT3 (Homo sapiens), P36888 [D835H]; conditions: Compound concentration 1000.0 nM
[15] = test system: Receptor-type tyrosine-protein kinase FLT3 (Homo sapiens), P36888 [R834Q]; conditions: Compound concentration 1000.0 nM
[16] = target: Interleukin-1 receptor-associated kinase 4 (Homo sapiens) (UniProt Q9NWZ3); conditions: Compound concentration 1000.0 nM
[17] = target: Tyrosine-protein kinase JAK2 (Homo sapiens) (UniProt O60674); conditions: Compound concentration 1000.0 nM
[18] = test system: Mast/stem cell growth factor receptor Kit (Homo sapiens), P10721 [L576P]; conditions: Compound concentration 1000.0 nM
[19] = target: Mast/stem cell growth factor receptor Kit (Homo sapiens) (UniProt P10721); conditions: Compound concentration 1000.0 nM
[20] = target: Serine/threonine-protein kinase LATS1 (Homo sapiens) (UniProt O95835); conditions: Compound concentration 1000.0 nM
[21] = target: Serine/threonine-protein kinase STK11 (Homo sapiens) (UniProt Q15831); conditions: Compound concentration 1000.0 nM
[22] = target: Tyrosine-protein kinase Lyn (Homo sapiens) (UniProt P07948); conditions: Compound concentration 1000.0 nM
[23] = target: Misshapen-like kinase 1 (Homo sapiens) (UniProt Q8N4C8); conditions: Compound concentration 1000.0 nM
[24] = target: Dual specificity mitogen-activated protein kinase kinase 7 (Homo sapiens) (UniProt O14733); conditions: Compound concentration 1000.0 nM
[25] = target: Myosin light chain kinase (Homo sapiens) (UniProt Q32MK0); conditions: Compound concentration 1000.0 nM
[26] = target: Myosin light chain kinase family member 4 (Homo sapiens) (UniProt Q86YV6); conditions: Compound concentration 1000.0 nM
[27] = target: Serine/threonine-protein kinase Nek6 (Homo sapiens) (UniProt Q9HC98); conditions: Compound concentration 1000.0 nM
[28] = target: Serine/threonine-protein kinase Nek7 (Homo sapiens) (UniProt Q8TDX7); conditions: Compound concentration 1000.0 nM
[29] = target: Serine/threonine-protein kinase Nek9 (Homo sapiens) (UniProt Q8TD19); conditions: Compound concentration 1000.0 nM
[30] = target: Serine/threonine-protein kinase PAK 5 (Homo sapiens) (UniProt Q9P286); conditions: Compound concentration 1000.0 nM
[31] = target: 3-phosphoinositide-dependent protein kinase 1 (Homo sapiens) (UniProt O15530); conditions: Compound concentration 1000.0 nM
[32] = target: Phosphatidylinositol 4,5-bisphosphate 3-kinase catalytic subunit gamma isoform (Homo sapiens) (UniProt P48736); conditions: Compound concentration 1000.0 nM
[33] = target: Serine/threonine-protein kinase pim-2 (Homo sapiens) (UniProt Q9P1W9); conditions: Compound concentration 1000.0 nM
[34] = test system: Proto-oncogene tyrosine-protein kinase receptor Ret (Homo sapiens), P07949 [M918T]; conditions: Compound concentration 1000.0 nM
[35] = target: Serine/threonine-protein kinase RIO1 (Homo sapiens) (UniProt Q9BRS2); conditions: Compound concentration 1000.0 nM
[36] = target: Ribosomal protein S6 kinase alpha-1 (Homo sapiens) (UniProt Q15418); conditions: Compound concentration 1000.0 nM
[37] = target: Serine/threonine-protein kinase Sgk3 (Homo sapiens) (UniProt Q96BR1); conditions: Compound concentration 1000.0 nM
[38] = target: Serine/threonine-protein kinase 36 (Homo sapiens) (UniProt Q9NRP7); conditions: Compound concentration 1000.0 nM
[39] = target: STE20/SPS1-related proline-alanine-rich protein kinase (Homo sapiens) (UniProt Q9UEW8); conditions: Compound concentration 1000.0 nM
[40] = target: Tyrosine-protein kinase receptor Tie-1 (Homo sapiens) (UniProt P35590); conditions: Compound concentration 1000.0 nM
[41] = target: Phosphatidylinositol 3-kinase catalytic subunit type 3 (Homo sapiens) (UniProt Q8NEB9); conditions: Compound concentration 1000.0 nM
[42] = target: Serine/threonine-protein kinase VRK2 (Homo sapiens) (UniProt Q86Y07); conditions: Compound concentration 1000.0 nM
[43] = target: Tyrosine-protein kinase Yes (Homo sapiens) (UniProt P07947); conditions: Compound concentration 1000.0 nM
[44] = target: 5-hydroxytryptamine receptor 2A (Homo sapiens) (UniProt P28223); conditions: Compound concentration 10.0 uM
[45] = target: 5-hydroxytryptamine receptor 7 (Homo sapiens) (UniProt P34969); conditions: Compound concentration 10.0 uM

Sequence of Tyrosine-protein kinase receptor Tie-1 (Homo sapiens) (P35590 whole entry): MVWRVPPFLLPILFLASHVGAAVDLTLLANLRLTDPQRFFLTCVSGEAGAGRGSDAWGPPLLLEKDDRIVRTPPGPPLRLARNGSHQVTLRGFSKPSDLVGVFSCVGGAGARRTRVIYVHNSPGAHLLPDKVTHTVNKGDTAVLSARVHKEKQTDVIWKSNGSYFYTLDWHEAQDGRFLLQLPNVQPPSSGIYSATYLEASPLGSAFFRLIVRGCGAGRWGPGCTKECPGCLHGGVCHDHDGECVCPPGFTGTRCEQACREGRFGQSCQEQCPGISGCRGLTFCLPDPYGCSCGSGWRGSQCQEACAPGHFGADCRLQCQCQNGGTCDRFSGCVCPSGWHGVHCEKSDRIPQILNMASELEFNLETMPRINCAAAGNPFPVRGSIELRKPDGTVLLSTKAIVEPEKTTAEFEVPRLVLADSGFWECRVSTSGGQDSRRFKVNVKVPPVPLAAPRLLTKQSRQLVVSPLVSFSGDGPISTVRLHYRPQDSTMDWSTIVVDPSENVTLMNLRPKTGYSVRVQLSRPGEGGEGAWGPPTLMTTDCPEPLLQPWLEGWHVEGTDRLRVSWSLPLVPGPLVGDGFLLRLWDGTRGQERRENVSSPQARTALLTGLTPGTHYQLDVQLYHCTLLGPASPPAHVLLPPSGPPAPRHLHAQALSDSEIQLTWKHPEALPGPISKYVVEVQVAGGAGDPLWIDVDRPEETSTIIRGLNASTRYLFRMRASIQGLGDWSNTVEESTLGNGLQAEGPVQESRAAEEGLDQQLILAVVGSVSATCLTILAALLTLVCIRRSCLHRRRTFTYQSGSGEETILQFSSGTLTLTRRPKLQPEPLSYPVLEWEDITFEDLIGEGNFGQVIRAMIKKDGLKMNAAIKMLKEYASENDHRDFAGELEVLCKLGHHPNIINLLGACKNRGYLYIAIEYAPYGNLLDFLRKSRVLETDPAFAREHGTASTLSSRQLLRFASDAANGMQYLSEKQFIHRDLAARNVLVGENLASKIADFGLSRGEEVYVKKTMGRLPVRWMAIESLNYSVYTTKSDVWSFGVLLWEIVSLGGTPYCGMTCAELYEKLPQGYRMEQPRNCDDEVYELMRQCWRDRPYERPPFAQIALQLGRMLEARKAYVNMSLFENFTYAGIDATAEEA
Sequence of Serine/threonine-protein kinase LATS1 (Homo sapiens) (O95835 whole entry): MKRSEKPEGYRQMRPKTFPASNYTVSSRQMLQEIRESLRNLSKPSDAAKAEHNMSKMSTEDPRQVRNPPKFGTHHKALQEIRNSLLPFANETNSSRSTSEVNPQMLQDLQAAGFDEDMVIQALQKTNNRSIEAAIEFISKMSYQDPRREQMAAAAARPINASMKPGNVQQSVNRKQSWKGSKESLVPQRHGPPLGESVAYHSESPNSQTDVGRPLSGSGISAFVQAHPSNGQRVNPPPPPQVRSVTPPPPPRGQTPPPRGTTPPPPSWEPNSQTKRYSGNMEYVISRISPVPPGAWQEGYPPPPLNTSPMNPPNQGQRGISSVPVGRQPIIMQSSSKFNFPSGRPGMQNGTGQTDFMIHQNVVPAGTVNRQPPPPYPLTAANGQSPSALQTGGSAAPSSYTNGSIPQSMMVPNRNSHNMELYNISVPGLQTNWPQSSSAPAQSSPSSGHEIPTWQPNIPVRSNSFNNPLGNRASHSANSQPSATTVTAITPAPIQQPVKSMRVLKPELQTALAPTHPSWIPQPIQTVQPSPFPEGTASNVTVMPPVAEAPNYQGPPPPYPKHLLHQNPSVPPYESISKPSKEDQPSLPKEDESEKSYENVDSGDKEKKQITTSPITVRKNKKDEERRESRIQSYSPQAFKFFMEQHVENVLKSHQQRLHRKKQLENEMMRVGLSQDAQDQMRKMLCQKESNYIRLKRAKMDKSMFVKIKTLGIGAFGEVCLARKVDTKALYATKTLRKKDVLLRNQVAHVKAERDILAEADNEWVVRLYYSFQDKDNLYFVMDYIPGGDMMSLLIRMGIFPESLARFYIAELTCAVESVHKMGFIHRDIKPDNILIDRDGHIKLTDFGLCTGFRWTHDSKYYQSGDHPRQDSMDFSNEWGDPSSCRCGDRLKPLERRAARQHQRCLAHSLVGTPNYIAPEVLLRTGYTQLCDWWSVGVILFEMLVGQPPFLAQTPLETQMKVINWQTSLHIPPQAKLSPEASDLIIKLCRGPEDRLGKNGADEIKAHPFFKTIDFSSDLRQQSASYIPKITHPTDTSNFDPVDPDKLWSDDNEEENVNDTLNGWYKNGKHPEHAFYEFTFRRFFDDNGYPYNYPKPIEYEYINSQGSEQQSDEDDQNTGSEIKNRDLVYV
Sequence of Cyclin-dependent kinase-like 2 (Homo sapiens) (Q92772 whole entry, the tested form may be a part): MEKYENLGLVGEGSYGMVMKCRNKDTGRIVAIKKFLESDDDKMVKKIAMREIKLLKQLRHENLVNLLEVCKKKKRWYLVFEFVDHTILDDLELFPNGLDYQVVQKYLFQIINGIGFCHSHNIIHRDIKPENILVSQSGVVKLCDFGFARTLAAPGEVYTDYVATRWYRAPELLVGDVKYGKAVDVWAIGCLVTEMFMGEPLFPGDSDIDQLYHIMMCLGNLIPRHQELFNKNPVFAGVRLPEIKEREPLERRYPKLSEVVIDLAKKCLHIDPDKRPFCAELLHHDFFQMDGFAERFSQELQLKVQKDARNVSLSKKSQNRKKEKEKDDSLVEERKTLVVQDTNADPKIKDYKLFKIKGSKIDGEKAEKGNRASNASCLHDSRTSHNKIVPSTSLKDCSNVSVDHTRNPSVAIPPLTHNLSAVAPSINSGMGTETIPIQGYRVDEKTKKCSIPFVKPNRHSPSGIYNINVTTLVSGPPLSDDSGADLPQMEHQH
Sequence of Cyclin-dependent kinase-like 1 (Homo sapiens) (Q00532 whole entry): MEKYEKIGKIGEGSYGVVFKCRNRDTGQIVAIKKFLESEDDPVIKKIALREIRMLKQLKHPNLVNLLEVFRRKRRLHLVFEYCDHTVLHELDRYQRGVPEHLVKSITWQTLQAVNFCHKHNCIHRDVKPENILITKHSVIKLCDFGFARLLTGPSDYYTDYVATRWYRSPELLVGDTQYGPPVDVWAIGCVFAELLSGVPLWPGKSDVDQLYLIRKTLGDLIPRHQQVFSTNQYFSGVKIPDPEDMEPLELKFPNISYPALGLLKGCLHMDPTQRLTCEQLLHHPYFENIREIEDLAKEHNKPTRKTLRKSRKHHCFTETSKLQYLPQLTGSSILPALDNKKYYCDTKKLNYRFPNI
Sequence of Dual specificity mitogen-activated protein kinase kinase 7 (Homo sapiens) (O14733 whole entry): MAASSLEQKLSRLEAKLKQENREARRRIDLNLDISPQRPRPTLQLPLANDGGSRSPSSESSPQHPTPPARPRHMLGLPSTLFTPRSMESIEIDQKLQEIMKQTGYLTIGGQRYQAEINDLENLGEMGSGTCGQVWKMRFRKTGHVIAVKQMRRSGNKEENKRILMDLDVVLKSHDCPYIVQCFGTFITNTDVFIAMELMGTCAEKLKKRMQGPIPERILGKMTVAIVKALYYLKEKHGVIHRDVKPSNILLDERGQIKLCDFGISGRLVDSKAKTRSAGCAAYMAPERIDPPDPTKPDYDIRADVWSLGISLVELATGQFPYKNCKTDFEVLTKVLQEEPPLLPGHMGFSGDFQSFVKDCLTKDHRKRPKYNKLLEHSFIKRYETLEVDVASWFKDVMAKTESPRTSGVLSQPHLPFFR
Sequence of Mast/stem cell growth factor receptor Kit (Homo sapiens) (P10721 whole entry): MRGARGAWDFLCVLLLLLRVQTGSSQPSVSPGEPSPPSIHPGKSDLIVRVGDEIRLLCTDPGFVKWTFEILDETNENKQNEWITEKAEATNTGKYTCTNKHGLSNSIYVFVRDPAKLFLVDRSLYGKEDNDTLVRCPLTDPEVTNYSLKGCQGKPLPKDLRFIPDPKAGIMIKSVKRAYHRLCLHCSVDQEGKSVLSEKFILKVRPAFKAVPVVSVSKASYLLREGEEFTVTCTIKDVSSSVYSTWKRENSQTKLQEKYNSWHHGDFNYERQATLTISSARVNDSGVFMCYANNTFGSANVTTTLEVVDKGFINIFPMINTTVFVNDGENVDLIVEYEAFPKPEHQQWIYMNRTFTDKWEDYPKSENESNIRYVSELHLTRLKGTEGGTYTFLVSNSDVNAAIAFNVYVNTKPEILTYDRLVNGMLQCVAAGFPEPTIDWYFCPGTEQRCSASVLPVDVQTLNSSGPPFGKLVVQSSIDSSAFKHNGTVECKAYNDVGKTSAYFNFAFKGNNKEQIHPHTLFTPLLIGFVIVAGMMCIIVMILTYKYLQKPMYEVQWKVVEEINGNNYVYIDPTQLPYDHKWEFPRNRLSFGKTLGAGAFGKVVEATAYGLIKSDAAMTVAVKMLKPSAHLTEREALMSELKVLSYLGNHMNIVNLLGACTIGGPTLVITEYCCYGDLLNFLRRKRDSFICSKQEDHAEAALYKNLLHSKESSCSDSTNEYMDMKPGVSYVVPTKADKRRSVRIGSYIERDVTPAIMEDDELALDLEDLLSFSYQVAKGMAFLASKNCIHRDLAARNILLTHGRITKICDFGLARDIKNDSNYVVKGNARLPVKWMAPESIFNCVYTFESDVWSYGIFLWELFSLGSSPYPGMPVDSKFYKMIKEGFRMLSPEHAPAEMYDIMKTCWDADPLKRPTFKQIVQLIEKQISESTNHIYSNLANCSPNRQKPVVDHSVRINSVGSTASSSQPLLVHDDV
Sequence of 3-phosphoinositide-dependent protein kinase 1 (Homo sapiens) (O15530 whole entry, canonical isoform): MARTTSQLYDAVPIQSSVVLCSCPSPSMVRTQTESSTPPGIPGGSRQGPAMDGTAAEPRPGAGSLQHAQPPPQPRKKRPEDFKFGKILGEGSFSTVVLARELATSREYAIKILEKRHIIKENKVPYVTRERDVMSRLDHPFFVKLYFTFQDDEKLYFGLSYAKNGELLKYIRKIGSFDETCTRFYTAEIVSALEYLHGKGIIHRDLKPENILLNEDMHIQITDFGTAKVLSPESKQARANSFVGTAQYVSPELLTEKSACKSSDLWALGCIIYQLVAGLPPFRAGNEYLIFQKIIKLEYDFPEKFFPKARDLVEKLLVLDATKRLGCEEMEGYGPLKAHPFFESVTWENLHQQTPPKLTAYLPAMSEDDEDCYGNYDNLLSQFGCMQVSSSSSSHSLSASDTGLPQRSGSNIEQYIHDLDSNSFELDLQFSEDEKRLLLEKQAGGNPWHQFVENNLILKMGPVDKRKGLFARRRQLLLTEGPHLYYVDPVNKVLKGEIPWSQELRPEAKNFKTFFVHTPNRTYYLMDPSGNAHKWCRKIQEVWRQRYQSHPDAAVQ

O=C(O)[C@@H]1[C@@H](Cn2nnc3ccccc3c2=O)CC[C@H]1C(=O)c1ccc(OCCC2CCOCC2)cc1 [BAY-694]
inactive: residual activity [1] 100% | residual activity [2] 100% | residual activity [3] 79% | residual activity [4] 95% | residual activity [5] 92% | residual activity [6] 100% | residual activity [7] 100% | residual activity [8] 73% | residual activity [9] 100% | residual activity [10] 98% | residual activity [11] 88% | residual activity [12] 87% | residual activity [13] 92% | residual activity [14] 83% | residual activity [15] 100% | residual activity [16] 76% | residual activity [17] 74% | residual activity [18] 100% | residual activity [19] 89% | residual activity [20] 90% | residual activity [21] 94% | residual activity [22] 97% | residual activity [23] 100% | residual activity [24] 89% | residual activity [25] 72% | residual activity [26] 100% | residual activity [27] 100% | residual activity [28] 100% | residual activity [29] 100% | residual activity [30] 96% | residual activity [31] 80% | residual activity [32] 100% | residual activity [33] 94% | residual activity [34] 100% | residual activity [35] 100% | residual activity [36] 92% | residual activity [37] 100% | residual activity [38] 91% | residual activity [39] 96% | residual activity [40] 100% | residual activity [41] 96% | residual activity [42] 80% | residual activity [43] 100% | inhibition [44] 18.4% | inhibition [45] -2.99%

O=C(O)[C@H]1[C@H](Cn2nnc3ccccc3c2=O)CC[C@@H]1C(=O)c1ccc(OCCC2CCOCC2)cc1 [BAY-7598]
inactive: residual activity [1] 78% | residual activity [2] 100% | residual activity [3] 91% | residual activity [4] 100% | residual activity [5] 100% | residual activity [6] 100% | residual activity [7] 99% | residual activity [8] 97% | residual activity [9] 100% | residual activity [10] 88% | residual activity [11] 82% | residual activity [12] 90% | residual activity [13] 100% | residual activity [14] 72% | residual activity [15] 96% | residual activity [16] 76% | residual activity [17] 75% | residual activity [18] 96% | residual activity [19] 95% | residual activity [20] 84% | residual activity [21] 76% | residual activity [22] 92% | residual activity [23] 100% | residual activity [24] 96% | residual activity [25] 93% | residual activity [26] 100% | residual activity [27] 100% | residual activity [28] 100% | residual activity [29] 91% | residual activity [30] 98% | residual activity [31] 74% | residual activity [32] 90% | residual activity [33] 96% | residual activity [34] 76% | residual activity [35] 100% | residual activity [36] 95% | residual activity [37] 100% | residual activity [38] 100% | residual activity [39] 95% | residual activity [40] 75% | residual activity [41] 93% | residual activity [42] 80% | residual activity [43] 100% | inhibition [44] 16.2% | inhibition [45] -3.55%

Source: ChEMBL document CHEMBL4507264, “Data for DCP probe BAY-7598” (2021)
